Assay results from PubChem BioAssay (NCI).
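These data come from cells grown in 96-well plates and exposed to compound for 48 hours at five concentrations. GI50 = concentration required for 50% inhibition of growth. The concentration for full growth arrest is given as TGI.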

What was measured:
Test in all cases: NCI tumour cell line growth inhibition, 48 h
[1] = tested on: CAKI-1 renal
[2] = tested on: HCC-2998 colon
[3] = tested on: HOP-62 NSCLC
[4] = tested on: HOP-92 NSCLC
[5] = tested on: HS 578T breast
[6] = tested on: HT29 colon
[7] = tested on: OVCAR-3 ovarian
[8] = tested on: OVCAR-4 ovarian
[9] = tested on: OVCAR-5 ovarian
[10] = tested on: RPMI-8226 leukemia
[11] = tested on: RXF 393 renal
[12] = tested on: SF-268 CNS
[13] = tested on: SF-539 CNS
[14] = tested on: SN12C renal
[15] = tested on: T-47D breast

| Compound | TGI [1] | TGI [2] | TGI [3] | TGI [4] | TGI [5] | TGI [6] | TGI [7] | TGI [8] | TGI [9] | TGI [10] | TGI [11] | TGI [12] | TGI [13] | TGI [14] | TGI [15] | GI50 [3] | GI50 [13] | GI50 [14] |
| --- | --- | --- | --- | --- | --- | --- | --- | --- | --- | --- | --- | --- | --- | --- | --- | --- | --- | --- |
| CCN(CC)CCCNc1nc2ccccc2c2[nH]c3ccc(OC)cc3c12 | 8.25 µM | 2.33 µM | 3 µM | 9.53 µM | 3.81 µM | 2.05 µM | > 10 µM | 2.64 µM | 3.18 µM | 9.41 µM | 2.96 µM | 4.43 µM | 3.67 µM | 7.1 µM | > 10 µM | – | – | – |
| OC1CN2CCS[C@H]2C(O)C1O (stereo partly specified) | > 100 µM | > 100 µM | > 100 µM | > 100 µM | > 100 µM | > 100 µM | > 100 µM | > 100 µM | > 100 µM | > 100 µM | > 100 µM | > 100 µM | – | – | > 100 µM | – | – | – |
| CC(=O)Oc1cc2c(cc1OC(C)=O)[C@H]1CC[C@]3(C)[C@@H](OC(C)=O)CC[C@H]3[C@@H]1CC2 | 12.5 µM | 21.1 µM | 26.7 µM | 5.3 µM | 25.2 µM | 19.3 µM | 7.88 µM | 19.7 µM | 24.2 µM | 8.43 µM | 16.5 µM | 22.5 µM | 15.9 µM | 20.4 µM | 22.2 µM | 4.81 µM | 3.53 µM | 5.06 µM |
| N/N=C1/CCCc2nonc21 | > 100 µM | > 100 µM | > 100 µM | > 100 µM | > 100 µM | > 100 µM | > 100 µM | > 100 µM | > 100 µM | > 100 µM | > 100 µM | > 100 µM | > 100 µM | > 100 µM | > 100 µM | – | – | – |
| COc1ccc2oc(C(=O)N3CC(CCl)c4ccc([N+](=O)[O-])cc43)cc2c1 (stereo unspecified) | 45.6 µM | > 100 µM | 31.5 µM | > 100 µM | 62.2 µM | – | – | > 100 µM | – | > 100 µM | 34 µM | 53.8 µM | > 100 µM | – | > 100 µM | – | – | – |
| COc1ccc2c(c1)N=C1CSC(c3cc([N+](=O)[O-])ccc3Cl)N1C2 (stereo unspecified) | 66.8 µM | 33 µM | 97.2 µM | 71.5 µM | > 100 µM | 68.4 µM | – | > 100 µM | 68.2 µM | 57.6 µM | 82 µM | > 100 µM | 71.2 µM | 89.6 µM | > 100 µM | – | – | – |
| O=C(CCCl)NNC1=NCCN1 | – | > 100 µM | > 100 µM | > 100 µM | > 100 µM | > 100 µM | > 100 µM | > 100 µM | > 100 µM | > 100 µM | > 100 µM | > 100 µM | > 100 µM | > 100 µM | > 100 µM | – | – | – |
| COc1cc([C@@H]2c3[nH]c4ccccc4c3C(Nc3ccc([N+](=O)[O-])cc3)[C@H]3COC(=O)N23)cc(OC)c1O (stereo partly specified) | 2.11 µM | 20.3 µM | 0.302 µM | 1.96 µM | 2.79 µM | – | 1.98 µM | 5.91 µM | 2.06 µM | – | 1.04 µM | 5.35 µM | 0.302 µM | 3.76 µM | > 23.2 µM | – | – | – |
| CN(C)c1nc(NN)c2c(-c3ccccc3)c(-c3ccccc3)oc2n1 | > 100 µM | > 100 µM | – | > 100 µM | > 100 µM | > 100 µM | – | > 100 µM | > 100 µM | > 100 µM | > 100 µM | > 100 µM | > 100 µM | > 100 µM | > 100 µM | – | – | – |
| O=C(/C=C/c1ccco1)CC(=O)/C=C/c1ccco1 | 26.2 µM | 17.3 µM | 17.3 µM | 71.7 µM | 26.8 µM | – | – | > 31.6 µM | 23.3 µM | 23.9 µM | 10.6 µM | – | 21.2 µM | 17.5 µM | > 31.6 µM | – | – | – |
| O=[N+]([O-])c1cc(-[n+]2cc([O-])on2)ccc1F | 4.2 µM | 28.6 µM | 30.3 µM | 32.6 µM | 61.5 µM | 33.3 µM | 32.6 µM | 30.4 µM | 31.2 µM | > 100 µM | 27.2 µM | 28.9 µM | – | 31.2 µM | 15.5 µM | – | – | – |
| CCCCn1c2c(n(CCCC)c1=S)-c1c(n(CCCC)c(=S)n1CCCC)SSSS2 | – | 26.7 µM | 36.6 µM | 6.04 µM | 46.3 µM | 7.91 µM | 2.65 µM | 9.6 µM | 1.66 µM | 10.2 µM | 14.6 µM | 21.4 µM | 2.94 µM | 14.7 µM | 1.82 µM | – | – | – |
| CC1CCC2C(C(=O)O[C@H]3C4CCO[C@@H](OC5OC(CO)C(O)C(O)C5O)C4[C@@]4(CO)O[C@@H]34)=CO[C@@H](OC3OC(CO)C(O)C(O)C3O)C12 (stereo partly specified) | – | > 10 µM | > 10 µM | > 10 µM | > 10 µM | > 10 µM | > 10 µM | – | > 10 µM | > 10 µM | > 10 µM | > 10 µM | > 10 µM | > 10 µM | > 10 µM | – | – | – |
| N#CC1=C(N)OC(c2ccc([N+](=O)[O-])cc2)C1(C#N)C#N (stereo unspecified) | 13 µM | 23.5 µM | > 53 µM | 21.9 µM | 64.9 µM | 22.9 µM | – | 33.7 µM | 41.8 µM | 18.7 µM | 21 µM | > 54.3 µM | 32.1 µM | 32.2 µM | 43.2 µM | – | – | – |
| CN(C)c1ccc(/C=C(\NC(=O)c2ccccc2)C2NC(Cc3c[nH]c4ccccc34)C(=O)O2)cc1 (stereo unspecified) | > 100 µM | > 100 µM | > 100 µM | > 69.3 µM | > 54.9 µM | > 100 µM | > 100 µM | > 100 µM | > 100 µM | > 49 µM | > 100 µM | > 100 µM | – | > 100 µM | > 100 µM | – | – | – |
| CC(C)NCC(O)c1ccc(OCc2ccccc2)c(OCc2ccccc2)c1-c1ccccc1 (stereo unspecified) | 3.18 µM | 3.06 µM | 3.25 µM | 6.94 µM | 2.74 µM | 3.04 µM | 3.22 µM | 3.79 µM | 3.16 µM | – | > 100 µM | 11.8 µM | 2.98 µM | 3.13 µM | 7.53 µM | – | – | – |
